Source: PubChem BioAssay (NCI)
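Five compound concentrations were applied to cells in 96-well plates for 48 hours; endpoints were derived by simple linear interpolation of the resulting dose-response curve. TGI: total growth inhibition.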

What was measured:
Test in all cases: inhibition of tumour cell growth, NCI panel, 48 h
A498 renal = system: A498 renal
UO-31 renal = system: UO-31 renal
HCT-15 colon = system: HCT-15 colon
UACC-62 melanoma = system: UACC-62 melanoma
NCI-H23 lung = system: NCI-H23 lung
SF-539 CNS = system: SF-539 CNS
NCI-H460 lung = system: NCI-H460 lung
DU-145 prostate = system: DU-145 prostate
HCC-2998 colon = system: HCC-2998 colon
MDA-N = system: MDA-N
SK-MEL-2 melanoma = system: SK-MEL-2 melanoma
CAKI-1 renal = system: CAKI-1 renal
SF-268 CNS = system: SF-268 CNS
SW-620 colon = system: SW-620 colon
U251 CNS = system: U251 CNS
786-0 renal = system: 786-0 renal
NCI/ADR-RES ovarian = system: NCI/ADR-RES ovarian
ACHN renal = system: ACHN renal
HOP-62 NSCLC = system: HOP-62 NSCLC
MDA-MB-435 = system: MDA-MB-435
HL-60(TB) leukemia = system: HL-60(TB) leukemia
RXF 393 renal = system: RXF 393 renal
TK-10 renal = system: TK-10 renal
HCT-116 colon = system: HCT-116 colon
A549 NSCLC = system: A549 NSCLC
T-47D breast = system: T-47D breast
SN12C renal = system: SN12C renal
SNB-75 CNS = system: SNB-75 CNS
LOX IMVI melanoma = system: LOX IMVI melanoma
COLO 205 colon = system: COLO 205 colon
MDA-MB-231 breast = system: MDA-MB-231 breast
OVCAR-5 ovarian = system: OVCAR-5 ovarian
SK-OV-3 ovarian = system: SK-OV-3 ovarian
SF-295 CNS = system: SF-295 CNS
SK-MEL-28 melanoma = system: SK-MEL-28 melanoma
OVCAR-3 ovarian = system: OVCAR-3 ovarian
OVCAR-4 ovarian = system: OVCAR-4 ovarian
IGROV1 ovarian = system: IGROV1 ovarian
NCI-H226 lung = system: NCI-H226 lung
SK-MEL-5 melanoma = system: SK-MEL-5 melanoma
UACC-257 melanoma = system: UACC-257 melanoma
SNB-19 CNS = system: SNB-19 CNS
BT-549 breast = system: BT-549 breast
KM12 colon = system: KM12 colon
M14 melanoma = system: M14 melanoma
OVCAR-8 ovarian = system: OVCAR-8 ovarian
MCF7 breast = system: MCF7 breast
HT29 colon = system: HT29 colon
HOP-92 NSCLC = system: HOP-92 NSCLC
EKVX NSCLC = system: EKVX NSCLC
CCRF-CEM leukemia = system: CCRF-CEM leukemia
RPMI-8226 leukemia = system: RPMI-8226 leukemia
PC-3 prostate = system: PC-3 prostate
K-562 leukemia = system: K-562 leukemia
NCI-H522 lung = system: NCI-H522 lung
MALME-3M melanoma = system: MALME-3M melanoma
MOLT-4 leukemia = system: MOLT-4 leukemia

`CC(=O)/C(=C/n1ccc(=O)[nH]c1=S)C(=O)Nc1ccccc1C` was tested, and the TGI (A498 renal) was greater than 100 µM, the TGI (UO-31 renal) was greater than 100 µM and the TGI (HCT-15 colon) was greater than 100 µM. For the same molecule, the TGI (UACC-62 melanoma) was greater than 100 µM, the TGI (NCI-H23 lung) was greater than 100 µM and the TGI (SF-539 CNS) was greater than 100 µM. The TGI (NCI-H460 lung) was greater than 100 µM, the TGI (DU-145 prostate) was greater than 100 µM and the TGI (HCC-2998 colon) was greater than 100 µM. The TGI (MDA-N) was greater than 100 µM, the TGI (SK-MEL-2 melanoma) was greater than 100 µM and the TGI (CAKI-1 renal) was greater than 100 µM. The TGI (SF-268 CNS) was greater than 100 µM, the TGI (SW-620 colon) was greater than 100 µM and the TGI (U251 CNS) was greater than 100 µM. The TGI (786-0 renal) was greater than 100 µM, the TGI (NCI/ADR-RES ovarian) was greater than 100 µM and the TGI (ACHN renal) was greater than 100 µM. The TGI (HOP-62 NSCLC) was greater than 100 µM, the TGI (MDA-MB-435) was greater than 100 µM and the TGI (HL-60(TB) leukemia) was greater than 100 µM. It also gave a TGI (RXF 393 renal) greater than 100 µM, a TGI (TK-10 renal) greater than 100 µM and a TGI (HCT-116 colon) greater than 100 µM. It also gave a TGI (A549 NSCLC) greater than 100 µM, a TGI (T-47D breast) greater than 100 µM and a TGI (SN12C renal) greater than 100 µM. It also gave a TGI (SNB-75 CNS) greater than 100 µM, a TGI (LOX IMVI melanoma) greater than 100 µM and a TGI (COLO 205 colon) greater than 100 µM. The TGI (MDA-MB-231 breast) was greater than 100 µM, the TGI (OVCAR-5 ovarian) was greater than 100 µM and the TGI (SK-OV-3 ovarian) was greater than 100 µM. For the same molecule, the TGI (SF-295 CNS) was greater than 100 µM, the TGI (SK-MEL-28 melanoma) was greater than 100 µM and the TGI (OVCAR-3 ovarian) was greater than 100 µM. It also gave a TGI (OVCAR-4 ovarian) greater than 100 µM, a TGI (IGROV1 ovarian) greater than 100 µM and a TGI (NCI-H226 lung) greater than 100 µM. For the same molecule, the TGI (SK-MEL-5 melanoma) was greater than 100 µM, the TGI (UACC-257 melanoma) was greater than 100 µM and the TGI (SNB-19 CNS) was greater than 100 µM. For the same molecule, the TGI (BT-549 breast) was greater than 100 µM, the TGI (KM12 colon) was greater than 100 µM and the TGI (M14 melanoma) was greater than 100 µM. For the same molecule, the TGI (OVCAR-8 ovarian) was greater than 100 µM, the TGI (MCF7 breast) was greater than 100 µM and the TGI (HT29 colon) was greater than 100 µM. For the same molecule, the TGI (HOP-92 NSCLC) was greater than 100 µM and the TGI (EKVX NSCLC) was greater than 100 µM.

In the case of `CCOC(=O)CCSS(=O)(=O)c1ccccc1`, the TGI (A498 renal) was greater than 100 µM, the TGI (HCT-15 colon) was greater than 100 µM and the TGI (UACC-62 melanoma) was greater than 100 µM. It also gave a TGI (NCI-H23 lung) greater than 100 µM, a TGI (CCRF-CEM leukemia) greater than 100 µM and a TGI (NCI-H460 lung) greater than 100 µM. For the same molecule, the TGI (DU-145 prostate) was greater than 100 µM, the TGI (HCC-2998 colon) was greater than 100 µM and the TGI (MDA-N) was greater than 100 µM. It also gave a TGI (SK-MEL-2 melanoma) greater than 100 µM, a TGI (CAKI-1 renal) greater than 100 µM and a TGI (SW-620 colon) greater than 100 µM. It also gave a TGI (U251 CNS) greater than 100 µM, a TGI (786-0 renal) of 63.9 µM and a TGI (NCI/ADR-RES ovarian) greater than 100 µM. The TGI (ACHN renal) was greater than 100 µM, the TGI (HOP-62 NSCLC) was greater than 100 µM and the TGI (MDA-MB-435) was greater than 100 µM. For the same molecule, the TGI (HL-60(TB) leukemia) was greater than 100 µM, the TGI (RXF 393 renal) was greater than 100 µM and the TGI (TK-10 renal) was greater than 100 µM. It also gave a TGI (A549 NSCLC) greater than 100 µM, a TGI (T-47D breast) greater than 100 µM and a TGI (SN12C renal) greater than 100 µM. It also gave a TGI (RPMI-8226 leukemia) of 99 µM, a TGI (SNB-75 CNS) greater than 100 µM and a TGI (LOX IMVI melanoma) of 77.4 µM. For the same molecule, the TGI (COLO 205 colon) was greater than 100 µM, the TGI (OVCAR-5 ovarian) was greater than 100 µM and the TGI (SK-OV-3 ovarian) was greater than 100 µM. For the same molecule, the TGI (SF-295 CNS) was greater than 100 µM, the TGI (SK-MEL-28 melanoma) was greater than 100 µM and the TGI (OVCAR-3 ovarian) was greater than 100 µM. For the same molecule, the TGI (OVCAR-4 ovarian) was greater than 100 µM, the TGI (NCI-H226 lung) was greater than 100 µM and the TGI (SK-MEL-5 melanoma) was greater than 100 µM. The TGI (UACC-257 melanoma) was greater than 100 µM, the TGI (PC-3 prostate) was greater than 100 µM and the TGI (SNB-19 CNS) was greater than 100 µM. For the same molecule, the TGI (BT-549 breast) was greater than 100 µM, the TGI (KM12 colon) was greater than 100 µM and the TGI (M14 melanoma) was greater than 100 µM. For the same molecule, the TGI (OVCAR-8 ovarian) was greater than 100 µM, the TGI (MCF7 breast) was greater than 100 µM and the TGI (HOP-92 NSCLC) was greater than 100 µM. The TGI (EKVX NSCLC) was greater than 100 µM.

`COC(=O)C1=C(O)C(C(=O)OC)[C@]2(O)[C@@H](C(=O)OC)[C@H]1[C@H](C)[C@@H](c1ccccc1)[C@@H]2C(=O)OC` (some centres not stated) showed a TGI (HCT-15 colon) greater than 100 µM, a TGI (UACC-62 melanoma) greater than 100 µM and a TGI (NCI-H23 lung) greater than 100 µM. It also gave a TGI (CCRF-CEM leukemia) of 70.7 µM, a TGI (SF-539 CNS) greater than 100 µM and a TGI (NCI-H460 lung) greater than 100 µM. The TGI (DU-145 prostate) was greater than 100 µM, the TGI (MDA-N) was greater than 100 µM and the TGI (SK-MEL-2 melanoma) was greater than 100 µM. It also gave a TGI (CAKI-1 renal) greater than 100 µM, a TGI (SF-268 CNS) greater than 100 µM and a TGI (SW-620 colon) greater than 100 µM. It also gave a TGI (U251 CNS) greater than 100 µM, a TGI (786-0 renal) greater than 100 µM and a TGI (NCI/ADR-RES ovarian) greater than 100 µM. For the same molecule, the TGI (ACHN renal) was greater than 100 µM, the TGI (HOP-62 NSCLC) was greater than 100 µM and the TGI (MDA-MB-435) was greater than 100 µM. It also gave a TGI (HL-60(TB) leukemia) of 62.3 µM, a TGI (RXF 393 renal) greater than 100 µM and a TGI (TK-10 renal) greater than 100 µM. It also gave a TGI (HCT-116 colon) greater than 100 µM, a TGI (A549 NSCLC) greater than 100 µM and a TGI (K-562 leukemia) greater than 100 µM. For the same molecule, the TGI (T-47D breast) was greater than 100 µM, the TGI (SN12C renal) was greater than 100 µM and the TGI (NCI-H522 lung) was 47.1 µM. The TGI (SNB-75 CNS) was greater than 100 µM, the TGI (LOX IMVI melanoma) was greater than 100 µM and the TGI (COLO 205 colon) was greater than 100 µM. For the same molecule, the TGI (MDA-MB-231 breast) was greater than 100 µM, the TGI (OVCAR-5 ovarian) was greater than 100 µM and the TGI (SK-OV-3 ovarian) was greater than 100 µM. It also gave a TGI (SF-295 CNS) greater than 100 µM, a TGI (SK-MEL-28 melanoma) greater than 100 µM and a TGI (MALME-3M melanoma) greater than 100 µM. The TGI (OVCAR-3 ovarian) was greater than 100 µM, the TGI (OVCAR-4 ovarian) was greater than 100 µM and the TGI (MOLT-4 leukemia) was greater than 100 µM. It also gave a TGI (IGROV1 ovarian) of 93.5 µM, a TGI (NCI-H226 lung) greater than 100 µM and a TGI (SK-MEL-5 melanoma) greater than 100 µM. The TGI (UACC-257 melanoma) was greater than 100 µM, the TGI (PC-3 prostate) was greater than 100 µM and the TGI (SNB-19 CNS) was greater than 100 µM. The TGI (BT-549 breast) was greater than 100 µM, the TGI (KM12 colon) was greater than 100 µM and the TGI (M14 melanoma) was greater than 100 µM. It also gave a TGI (OVCAR-8 ovarian) greater than 100 µM, a TGI (HT29 colon) greater than 100 µM and a TGI (EKVX NSCLC) greater than 100 µM.
